From patent US20240043439A1, “COMPOUNDS AS C5AR INHIBITORS” (Kira Pharmaceuticals (Suzhou) Ltd., priority 2020, published 2024)

What was measured:
[1] = target: T1, C5aR (Homo sapiens (Human), UniProt P21730); assay: Inhibition of C5a-C5aR binding determined by cell migration assay (U937/C5aR cells); format: cell-based; conditions: U937/C5aR cell migration towards human C5a, 180 min
Method: Migration assay was performed by using polycarbonate membrane with 3.0 µm pore (Corning). U937/C5aR cells were collected and washed twice by PBS; cells were suspended in Hank's balanced salt solution (HBSS)+1% FBS buffer at the density of 6×10^6 cells/ml. Cells were premixed with compound and added to insert well, ligand human C5a and compound were added to bottom well in order, gently mix, incubate for 30 min at 37° C., […]. Put insert plate into bottom well, migrate for 180 min at 37° C., […]. Gently remove the insert well, add 50 μl CellTiter-Glo (Promega), gently shaking for 5 min at room temperature, transfer 150 μl mixture to black plate and read luminescence intensity by
microplate reader (BioTek).

[2] = target: human C5a receptor (C5aR) (Homo sapiens (Human), UniProt P21730); assay: Inhibition of C5a-C5aR binding (biotinylated human C5a, U937/C5aR cells, FACS)
Summary of the method: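 U937 cells stably expressing human C5aR, 3×10^6 cells/ml in PBS+0.1% BSA, were co-incubated with compound and biotinylated human C5a (30 nM, working solution) on ice for 120 min. Bound ligand was stained with FITC-streptavidin for 30 min on ice and read by flow cytometry.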

[3] = target: T1, C5aR; assay: Calcium mobilization (U937/C5aR or HEK293/C5aR cells, FLIPR); format: cell-based; conditions: agonist human C5a at EC80, FLIPR
Summary of the method: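 U937 or HEK293 cells expressing human C5aR, plated overnight, then preincubated 60 min with compound. After Fluo-4 Direct dye loading (50 min at 37 °C, 10 min at room temperature), intracellular calcium rise on FLIPR was triggered by human C5a agonist at EC80.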

T1 sequence (P21730 whole entry): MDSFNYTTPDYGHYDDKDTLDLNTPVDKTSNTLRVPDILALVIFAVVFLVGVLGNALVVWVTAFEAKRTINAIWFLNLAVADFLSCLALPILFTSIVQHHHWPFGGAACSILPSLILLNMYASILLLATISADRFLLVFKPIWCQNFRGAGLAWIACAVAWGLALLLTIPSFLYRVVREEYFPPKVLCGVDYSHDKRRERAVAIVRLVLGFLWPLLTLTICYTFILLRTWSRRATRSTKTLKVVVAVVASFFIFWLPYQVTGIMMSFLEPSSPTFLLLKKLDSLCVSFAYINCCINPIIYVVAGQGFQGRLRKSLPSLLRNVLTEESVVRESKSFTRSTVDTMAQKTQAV
human C5a receptor (C5aR), sequence (P21730 whole entry): as above

IC50 [1] | IC50 [2] | IC50 [3] | SMILES
0.5 to 2 µM | 0.5 to 2 µM | 2 to 10 µM | Cc1cccc(F)c1C(=O)N1[C@@H]2CCC[C@@H]2C[C@H](C(=O)Nc2cccc(S(C)(=O)=O)c2)[C@@H]1c1ccc(NC2CCCC2)cc1 (racemic) [Compound 70, cis-2-(4-(cyclopentylamino)phenyl)-1-(2-fluoro-6-methylbenzoyl)-N-(3-(methylsulfonyl)phenyl)octahydro-1H-cyclopenta[b]pyridine-3-carboxamide]
0.05 to 0.5 µM | 0.05 to 0.5 µM | 0.05 to 0.5 µM | Cc1cccc(F)c1C(=O)N1C2CCC[C@@H]2C[C@H](C(=O)Nc2ccc3cccnc3c2)[C@@H]1c1ccc(NC2CCOCC2)cc1 (relative stereo) [Compound 90, cis-1-(2-fluoro-6-methylbenzoyl)-N-(quinolin-7-yl)-2-(4-((tetrahydro-2H-pyran-4-yl)amino)phenyl)octahydro-1H-cyclopenta[b]pyridine-3-carboxamide]
0.05 to 0.5 µM | 0.05 to 0.5 µM | 0.5 to 2 µM | Cc1cccc(F)c1C(=O)N1[C@@H]2CCC[C@@H]2C[C@H](C(=O)Nc2ccc3cnn(C4COC4)c3c2)[C@@H]1c1ccc(NC2CCCC2)cc1 (racemic) [Compound 59, cis-2-(4-(cyclopentylamino)phenyl)-1-(2-fluoro-6-methylbenzoyl)-N-(1-(oxetan-3-yl)-1H-indazol-6-yl)octahydro-1H-cyclopenta[b]pyridine-3-carboxamide]
0.05 to 0.5 µM | 0.05 to 0.5 µM | 2 to 10 µM | Cc1cccc(F)c1C(=O)N1C2CCC[C@@H]2C[C@H](C(=O)Nc2cccnc2)[C@@H]1c1ccc(NC2CCCC2)cc1 (relative stereo) [Compound 57, cis-2-(4-(cyclopentylamino)phenyl)-1-(2-fluoro-6-methylbenzoyl)-N-(pyridin-3-yl)octahydro-1H-cyclopenta[b]pyridine-3-carboxamide]
0.05 to 0.5 µM | 0.05 to 0.5 µM | 0.05 to 0.5 µM | Cc1cccc(F)c1C(=O)N1C2CCC[C@@H]2C[C@H](C(=O)Nc2cccc(C(F)(F)F)c2)[C@@H]1c1ccc(NC2CCCC2)cc1 (relative stereo) [Compound 46, cis-2-(4-(cyclopentylamino)phenyl)-1-(2-fluoro-6-methylbenzoyl)-N-(3-(trifluoromethyl)phenyl)octahydro-1H-cyclopenta[b]pyridine-3-carboxamide]
0.05 to 0.5 µM | 0.05 to 0.5 µM | 0.05 to 0.5 µM | Cc1ccc(NC(=O)[C@H]2C[C@H]3CCC[C@H]3N(C(=O)c3c(C)cccc3F)[C@H]2c2ccc(NC3CCCC3)cc2)cc1C#N (racemic) [Compound 62, cis-N-(3-cyano-4-methylphenyl)-2-(4-(cyclopentylamino)phenyl)-1-(2-fluoro-6-methylbenzoyl)octahydro-1H-cyclopenta[b]pyridine-3-carboxamide]
< 0.05 µM | < 0.05 µM | 0.5 to 2 µM | Cc1cccc(F)c1C(=O)N1[C@@H]2CCC[C@@H]2C[C@H](C(=O)Nc2ccc3c(ccn3C)c2)[C@@H]1c1ccc(NC2CCOCC2)cc1 [Compound 98, (2R,3S,4aR,7aR)-1-(2-fluoro-6-methylbenzoyl)-N-(1-methyl-1H-indol-5-yl)-2-(4-((tetrahydro-2H-pyran-4-yl)amino)phenyl)octahydro-1H-cyclopenta[b]pyridine-3-carboxamide]
< 0.05 µM | < 0.05 µM | 0.5 to 2 µM | Cc1cccc(F)c1C(=O)N1[C@@H]2CCC[C@@H]2C[C@H](C(=O)Nc2ccc(N(C)C)cc2)[C@@H]1c1ccc(NC2CCCC2)cc1 [Compound 51, (2R,3S,4aR,7aR)-2-(4-(cyclopentylamino)phenyl)-N-(4-(dimethylamino)phenyl)-1-(2-fluoro-6-methylbenzoyl)octahydro-1H-cyclopenta[b]pyridine-3-carboxamide]

The remaining lines, values behind:

SMILES | IC50 [1] | IC50 [2] | IC50 [3]
Cc1cccc(F)c1C(=O)N1[C@@H]2COC[C@@H]2C[C@H](C(=O)Nc2ccc3[nH]ncc3c2)[C@@H]1c1ccc(NC2CCCC2)cc1 [Compound 138, (2R,3S,4aR,7aS)-2-(4-(cyclopentylamino)phenyl)-1-(2-fluoro-6-methylbenzoyl)-N-(1H-indazol-5-yl)octahydrofuro[3,4-b]pyridine-3-carboxamide] | 0.5 to 2 µM | 0.05 to 0.5 µM | 2 to 10 µM
Cc1ccc(NC(=O)C2C[C@H]3CCC[C@H]3N(C(=O)C3CCOCC3)[C@H]2c2ccc(NC3CCCC3)cc2)cc1C(F)(F)F (relative stereo) [Compound 111, cis-2-(4-(cyclopentylamino)phenyl)-N-(4-methyl-3-(trifluoromethyl)phenyl)-1-(tetrahydro-2H-pyran-4-carbonyl)octahydro-1H-cyclopenta[b]pyridine-3-carboxamide] | 0.05 to 0.5 µM | 0.05 to 0.5 µM | 2 to 10 µM
Cc1cccc(F)c1C(=O)N1C(c2ccc(NC3CCCC3)cc2)C(C(=O)Nc2ccc3c(cnn3C)c2)C[C@@H]2CCC[C@@H]21 (relative stereo) [Compound 147, cis-2-(4-(cyclopentylamino)phenyl)-1-(2-fluoro-6-methylbenzoyl)-N-(1-methyl-1H-indazol-5-yl)octahydro-1H-cyclopenta[b]pyridine-3-carboxamide] | 0.05 to 0.5 µM | < 0.05 µM | 0.05 to 0.5 µM
Cc1cccc(F)c1C(=O)N1CCC[C@H](c2nc3ccc(C(C)(C)C)cc3[nH]2)[C@@H]1c1ccc(NC2CCCC2)cc1 [Compound 180, ((2R,3S)-3-(6-(tert-butyl)-1H-benzo[d]imidazol-2-yl)-2-(4-(cyclopentylamino)phenyl)piperidin-1-yl)(2-fluoro-6-methylphenyl)methanone] | < 0.05 µM | 2 to 5 µM | 2 to 10 µM
Cc1ccc(NC(=O)[C@H]2CCCN(c3ncnc4cnccc34)[C@H]2c2ccc(NC3CCCC3)cc2)cc1C(F)(F)F [Compound 162, (2R,3S)-2-(4-(cyclopentylamino)phenyl)-N-(4-methyl-3-(trifluoromethyl)phenyl)-1-(pyrido[3,4-d]pyrimidin-4-yl)piperidine-3-carboxamide] | 0.5 to 2 µM | 0.05 to 0.5 µM | 2 to 10 µM
Cc1ccc(NC(=O)C2C[C@@H]3CCC[C@@H]3N(C(=O)c3cocn3)C2c2ccc(NC3CCCC3)cc2)cc1C(F)(F)F (relative stereo) [Compound 110, cis-2-(4-(cyclopentylamino)phenyl)-N-(4-methyl-3-(trifluoromethyl)phenyl)-1-(oxazole-4-carbonyl)octahydro-1H-cyclopenta[b]pyridine-3-carboxamide] | 0.05 to 0.5 µM | 0.05 to 0.5 µM | > 10 µM
Cc1ccc(NC(=O)[C@H]2CCCN(c3ncnc4ccccc34)[C@H]2c2ccc(NC3CCCC3)cc2)cc1C(F)(F)F [Compound 5, (2R,3S)-2-(4-(cyclopentylamino)phenyl)-N-(4-methyl-3-(trifluoromethyl)phenyl)-1-(quinazolin-4-yl)piperidine-3-carboxamide] | 0.05 to 0.5 µM | 0.05 to 0.5 µM | 2 to 10 µM
Cc1cccc(F)c1C(=O)N1C(c2ccc(NC3CCCC3)cc2)C(C(=O)Nc2cnc3cnn(C)c3c2)C[C@@H]2CCC[C@@H]21 (relative stereo) [Compound 78, cis-2-(4-(cyclopentylamino)phenyl)-1-(2-fluoro-6-methylbenzoyl)-N-(1-methyl-1H-pyrazolo[4,3-b]pyridin-6-yl)octahydro-1H-cyclopenta[b]pyridine-3-carboxamide] | 0.05 to 0.5 µM | 0.05 to 0.5 µM | 0.5 to 2 µM
Cc1ccc(NC(=O)C2C[C@@H]3COC[C@@H]3N(C(=O)c3c(C)cccc3F)C2c2ccc(CN3CCOCC3(C)C)cc2)cc1C(F)(F)F (relative stereo) [Compound 141, cis-2-(4-((3,3-dimethylmorpholino)methyl)phenyl)-1-(2-fluoro-6-methylbenzoyl)-N-(4-methyl-3-(trifluoromethyl)phenyl)octahydrofuro[3,4-b]pyridine-3-carboxamide] | 0.5 to 2 µM | 0.05 to 0.5 µM | 2 to 10 µM
Cc1cccc(F)c1C(=O)N1C(c2ccc(NC3CCCC3)cc2)C(C(=O)Nc2ccc3c(c2)CCN(C)C3)C[C@@H]2CCC[C@@H]21 (relative stereo) [Compound 77, cis-2-(4-(cyclopentylamino)phenyl)-1-(2-fluoro-6-methylbenzoyl)-N-(2-methyl-1,2,3,4-tetrahydroisoquinolin-6-yl)octahydro-1H-cyclopenta[b]pyridine-3-carboxamide] | > 5 µM | 2 to 5 µM | 2 to 10 µM
Cc1ccc(NC(=O)C2C[C@@H]3COC[C@@H]3N(C(=O)c3c(C)cccc3F)C2c2ccc(NC3CCCC3)cc2)cc1C(F)(F)F (relative stereo) [Compound 118, cis-2-(4-(cyclopentylamino)phenyl)-1-(2-fluoro-6-methylbenzoyl)-N-(4-methyl-3-(trifluoromethyl)phenyl)octahydrofuro[3,4-b]pyridine-3-carboxamide] | < 0.05 µM | < 0.05 µM | 0.05 to 0.5 µM
